Reference: US20120196853A1, “Novel Quinoline-Hepcidine Antagonists” (VIFOR (INTERNATIONAL) AG, priority 2009, published 2012)
pIC50: −log10 of the molar value.

These molecules were tested against T1, human ferroportin (Fpn-HaloTag fusion protein) (Homo sapiens, UniProt Q9NP59) (assay: ferroportin internalization assay (inhibition of hepcidin-induced internalization of Fpn, MDCK-FPN-HaloTag cells)). Conditions: 100 nM hepcidin, overnight, dilution series 0.04 to 40 μM.
T1 construct: expressed in transfected cells
T1 sequence (Q9NP59 1-571): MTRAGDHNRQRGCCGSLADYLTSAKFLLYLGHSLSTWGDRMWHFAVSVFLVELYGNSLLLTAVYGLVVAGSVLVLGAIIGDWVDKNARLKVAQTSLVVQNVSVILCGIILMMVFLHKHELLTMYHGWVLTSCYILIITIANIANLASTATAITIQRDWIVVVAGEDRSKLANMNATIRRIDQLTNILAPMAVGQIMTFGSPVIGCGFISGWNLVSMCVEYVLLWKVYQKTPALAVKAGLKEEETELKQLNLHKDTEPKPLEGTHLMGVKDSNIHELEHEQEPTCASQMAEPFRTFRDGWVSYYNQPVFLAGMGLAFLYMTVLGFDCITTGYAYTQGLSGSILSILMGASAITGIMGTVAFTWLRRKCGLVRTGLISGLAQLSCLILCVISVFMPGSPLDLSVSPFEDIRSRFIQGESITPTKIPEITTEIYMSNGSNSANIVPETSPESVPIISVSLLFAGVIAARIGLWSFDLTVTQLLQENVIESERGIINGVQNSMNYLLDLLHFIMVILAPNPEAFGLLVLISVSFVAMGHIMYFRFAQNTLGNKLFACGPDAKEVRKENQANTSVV
Type: cell-based
Protocol: The hepcidin-antagonistic action of the quinoline compounds of the present invention was determined by means of the “ferroportin internalization assay” described in the following.
Organic compounds of low molecular weight which counteract the biological actions of hepcidin on its receptor, the iron exporter ferroportin (Fpn), were identified on the basis of their ability to inhibit hepcidin-induced internalization of Fpn in living cells. For this purpose, a stable cell line (Madin-Darby canine kidney, MDCK) was produced which constitutively expresses human ferroportin fused recombinantly at its C terminus with a fluorescent reporter protein (HaloTag®, Promega Corp.). The internalization of Fpn was monitored by labelling these cells with fluorescent ligands (HaloTag®-TMR, tetramethylrhodamine) which join covalently on to the HaloTag reporter gene fused with the Fpn. […] Optimized image analysis algorithms were used to ascertain the cell surface and to quantify the corresponding membrane fluorescence associated with the Fpn-HaloTag fusion protein. This assay allows a quantitative image-based analysis in order to quickly evaluate compounds which can block hepcidin-induced internalization of Fpn. This assay is a direct in vitro pendant of the in vivo action mechanism proposed for medicament candidates and is therefore suitable as an initial assay with a high throughput for identifying compounds which counteract the action of hepcidin on its receptor ferroportin.
• 7,500 cells per well (MDCK-FPN-HaloTag) were transinoculated in 50 μl DMEM medium (Dulbeccos modified Eagle medium with 10% foetal bovine serum (FBS), which contained 1% penicillin, 1% streptomycin and 450 μg/ml of G-418) in microtitre plates with 384 wells, (384 Cell carrier plates, Perkin Elmer, cat. no. 6007430), followed by incubation overnight at 37° C./5% CO2. • The volume of the medium was reduced to 10 μl, and 10 μl of 5 μM HaloTag-TMR ligands (Promega, cat. no. G 8251) were added in DMEM medium in order to stain the Fpn-HaloTag fusion protein. • 15 min incubation at 37° C./5% CO2 • The HaloTag-TMR ligand was removed and the cells were washed with fresh DMEM medium and the volume was reduced to 20 μl of DMEM medium. • 3 μl per well of a solution of the test compound (dissolved DMSO) were added ([…]). • 7 μl of […] hepcidin (Peptides International, cat. no. PLP-4392-s, 100 μM stock solution diluted in water in DMEM medium) were added per well up to a final hepcidin concentration of 100 nM. • The cells were incubated overnight at 37° C./5% CO2. • The cells were fixed by adding paraformaldehyde (PFA, Electron Microscopy Sciences, cat. no. 15710-S) directly to the cells up to a final concentration of 4%, followed by incubation at room temperature for 15-20 minutes. • The PFA solution was removed and the cells were washed with PBS (phosphate-buffered saline solution), in each case 30 μl remaining in the plate. • 20 μl of Draq5 (Biostatus, cat. no. DR 51000) were added up to a final concentration of 2.5 μM in order to stain the cell nuclei, and the plates were sealed with a foil plate seal. • The plates were analysed with the Opera Plate Imager (Opera Confocal Plate Imager, Perkin Elmer) with 7 images per well; 440 ms exposure time per image, […] focal point height.

SMILES | pIC50
Oc1c(C(c2ccccn2)N2CCOCC2)ccc2cccnc12 (stereo not drawn) [Example 1, 7-(Morpholin-4-yl-pyridin-2-yl-methyl)-quinolin-8-ol] | > 4.30
Oc1c(C(c2ccc(Cl)cc2)N2CCOCC2)cc(Cl)c2cccnc12 (stereo not drawn) [Example 2, 5-Chloro-7-[(4-chloro-phenyl)-morpholin-4-yl-methyl]-quinolin-8-ol] | > 4.30
O=C(Oc1c(CN2CCOCC2)cc(Cl)c2cccnc12)c1ccco1 [Example 3, Furan-2-carboxylic acid 5-chloro-7-morpholin-4-ylmethyl-quinolin-8-yl ester] | > 4.30
COc1cc(C(=O)Oc2c(CN3CCOCC3)cc(Cl)c3cccnc23)cc(OC)c1OC [Example 4, 3,4,5-Trimethoxy-benzoic acid 5-chloro-7-morpholin-4-ylmethyl-quinolin-8-yl ester] | > 4.30
O=C(Oc1c(CN2CCOCC2)cc(Cl)c2cccnc12)c1ccccc1 [Example 5, Benzoic acid 5-chloro-7-morpholin-4-ylmethyl-quinolin-8-yl ester] | > 4.30
Oc1c(C(Nc2ccccn2)c2cccnc2)cc(Cl)c2cccnc12 (stereo not drawn) [Example 6, 5-Chloro-7-[pyridin-3-yl-(pyridin-2-ylamino)-methyl]-quinolin-8-ol] | > 4.30
Oc1c(C(c2ccccn2)N2CCC(Cc3ccccc3)CC2)ccc2cccnc12 (stereo not drawn) [Example 7, 7-[(4-Benzyl-piperidin-1-yl)-pyridin-2-yl-methyl]-quinolin-8-ol] | > 4.30
OCCN1CCN(C(c2ccccn2)c2ccc3cccnc3c2O)CC1 (stereo not drawn) [Example 8] | > 4.30
Cc1ccc(C(c2ccc3cccnc3c2O)N2CCOCC2)cc1 (stereo not drawn) [Example 9, 7-(Morpholin-4-yl-p-tolyl-methyl)-quinolin-8-ol] | > 4.30
N#Cc1ccc(C(c2ccc3cccnc3c2O)N2CCOCC2)cc1 (stereo not drawn) [Example 10, 4-[(8-Hydroxy-quinolin-7-yl)-morpholin-4-yl-methyl]-benzonitrile] | > 4.30
COc1ccc(C(c2ccc3cccnc3c2O)N2CCOCC2)cn1 (stereo not drawn) [Example 11, 7-[(6-Methoxy-pyridin-3-yl)-morpholin-4-yl-methyl]-quinolin-8-ol] | > 4.30
Cc1ccccc1C(c1ccc2cccnc2c1O)N1CCOCC1 (stereo not drawn) [Example 12, 7-(Morpholin-4-yl-o-tolyl-methyl)-quinolin-8-ol] | > 4.30
Oc1c(C(c2ccccc2Cl)N2CCOCC2)ccc2cccnc12 (stereo not drawn) [Example 13, 7-[(2-Chloro-phenyl)-morpholin-4-yl-methyl]-quinolin-8-ol] | > 4.30
COc1ccccc1C(c1ccc2cccnc2c1O)N1CCOCC1 (stereo not drawn) [Example 14, 7-[(2-Methoxy-phenyl)-morpholin-4-yl-methyl]-quinolin-8-ol] | > 4.30
Oc1c(C(c2cnccn2)N2CCOCC2)ccc2cccnc12 (stereo not drawn) [Example 15, 7-(Morpholin-4-yl-pyrazin-2-yl-methyl)-quinolin-8-ol] | > 4.30
Oc1c(C(c2nccn2Cc2ccccc2)N2CCOCC2)ccc2cccnc12 (stereo not drawn) [Example 16] | > 4.30
Oc1c(C(NCc2ccccc2)c2ccncc2)ccc2cccnc12 (stereo not drawn) [Example 17, 7-(Benzylamino-pyridin-4-yl-methyl)-quinolin-8-ol] | > 4.30
CC1CN(C(c2ccncc2)c2ccc3cccnc3c2O)CC(C)O1 (stereo not drawn) [Example 18, 7-[(2,6-Dimethyl-morpholin-4-yl)-pyridin-4-yl-methyl]-quinolin-8-ol] | > 4.30

SMILES | pIC50
CN(Cc1ccccc1)C(c1ccncc1)c1ccc2cccnc2c1O (stereo not drawn) [Example 19, 7-[(Benzyl-methyl-amino)-pyridin-4-yl-methyl]-quinolin-8-ol] | > 4.30
CC1CN(C(c2ccc(F)cc2)c2ccc3cccnc3c2O)CC(C)O1 (stereo not drawn) [Example 20, 7-[(2,6-Dimethyl-morpholin-4-yl)-(4-fluoro-phenyl)-methyl]-quinolin-8-ol] | > 4.30
Oc1c(C(c2cccs2)N2CCOCC2)ccc2cccnc12 (stereo not drawn) [Example 21, 7-(Morpholin-4-yl-thiophen-2-yl-methyl)-quinolin-8-ol] | > 4.30
Oc1c(CN2CCOCC2)ccc2cccnc12 [Example 22, 7-Morpholin-4-yl-methyl-quinolin-8-ol] | > 4.30
COc1cc(COc2c(CN3CCOCC3)ccc3cccnc23)cc(OC)c1OC [Example 23, 7-Morpholin-4-ylmethyl-8-(3,4,5-trimethoxybenzyloxy)-quinoline] | < 4.00
NC(=O)c1ccc(C(c2ccc3cccnc3c2O)N2CCOCC2)cc1 (stereo not drawn) [Example 24, 4-[(8-Hydroxy-quinolin-7-yl)-morpholin-4-yl-methyl]-benzamide] | > 4.30
Oc1c(C(c2ccccn2)N2CCOCC2)cc(Cl)c2cccnc12 (stereo not drawn) [Example 25, 5-Chloro-7-(morpholin-4-yl-pyridin-2-yl-methyl)-quinolin-8-ol] | > 4.30
CCOC(=O)N1CCN(C(c2ccccn2)c2ccc3cccnc3c2O)CC1 (stereo not drawn) [Example 26, 4-[(8-Hydroxy-quinolin-7-yl)-pyridin-2-yl-methyl]-piperazine-1-carboxylic acid ethyl ester] | > 4.30
Oc1c(C(c2ccccn2)N2CCCCC2)ccc2cccnc12 (stereo not drawn) [Example 27, 7-(Piperidin-1-yl-pyridin-2-yl-methyl)-quinolin-8-ol] | > 4.30
Oc1c(C(c2ccc(F)cc2)N2CCOCC2)ccc2cccnc12 (stereo not drawn) [Example 28] | > 4.30
Oc1c(C(c2cccnc2)N2CCOCC2)ccc2cccnc12 (stereo not drawn) [Example 29, 7-(Morpholin-4-yl-pyridin-3-yl-methyl)-quinolin-8-ol] | > 4.30
Oc1c(C(c2ccncc2)N2CCOCC2)ccc2cccnc12 (stereo not drawn) [Example 30, 7-(Morpholin-4-yl-pyridin-4-yl-methyl)-quinolin-8-ol] | > 4.30
Oc1c(CN2CCOCC2)cc(Cl)c2cccnc12 [Example 31, 5-Chloro-7-morpholin-4-ylmethyl-quinolin-8-ol] | > 4.30
Oc1c(C(c2ccccn2)N2CCCCC2)cc(Cl)c2cccnc12 (stereo not drawn) [Example 32, 5-Chloro-7-(piperidin-1-yl-pyridin-2-yl-methyl)-quinolin-8-ol] | > 4.30
CC1CN(C(c2ccccn2)c2cc(Cl)c3cccnc3c2O)CC(C)O1 (stereo not drawn) [Example 33] | > 4.30
Oc1c(C(c2ccccn2)N2CCN(Cc3ccccc3)CC2)ccc2cccnc12 (stereo not drawn) [Example 34, 7-[(4-Benzyl-piperazin-1-yl)-pyridin-2-yl-methyl]quinolin-8-ol] | > 4.30
CN1CCN(C(c2ccccn2)c2ccc3cccnc3c2O)CC1 (stereo not drawn) [Example 35, 7-[(4-Methyl-piperazin-1-yl)-pyridin-2-yl-methyl]-quinolin-8-ol] | > 4.30
Oc1c(C(c2ccccn2)N2CCC(c3ccccc3F)CC2)ccc2cccnc12 (stereo not drawn) [Example 36, 7-{[4-(2-Fluoro-phenyl)-piperidin-1-yl]-pyridin-2-yl-methyl}-quinolin-8-ol] | > 4.30

Same assay, conditions: 10 μM substance conc., hepcidin-induced Fpn internalization

SMILES | I [%] (median inhibition [%] at 10 μM substance conc.)
Oc1c(C(c2ccccn2)N2CCOCC2)ccc2cccnc12 (stereo not drawn) [Example 1, 7-(Morpholin-4-yl-pyridin-2-yl-methyl)-quinolin-8-ol] | >50
Oc1c(C(c2ccc(Cl)cc2)N2CCOCC2)cc(Cl)c2cccnc12 (stereo not drawn) [Example 2, 5-Chloro-7-[(4-chloro-phenyl)-morpholin-4-yl-methyl]-quinolin-8-ol] | <50
O=C(Oc1c(CN2CCOCC2)cc(Cl)c2cccnc12)c1ccco1 [Example 3, Furan-2-carboxylic acid 5-chloro-7-morpholin-4-ylmethyl-quinolin-8-yl ester] | <50
COc1cc(C(=O)Oc2c(CN3CCOCC3)cc(Cl)c3cccnc23)cc(OC)c1OC [Example 4, 3,4,5-Trimethoxy-benzoic acid 5-chloro-7-morpholin-4-ylmethyl-quinolin-8-yl ester] | <50
O=C(Oc1c(CN2CCOCC2)cc(Cl)c2cccnc12)c1ccccc1 [Example 5, Benzoic acid 5-chloro-7-morpholin-4-ylmethyl-quinolin-8-yl ester] | <50
Oc1c(C(Nc2ccccn2)c2cccnc2)cc(Cl)c2cccnc12 (stereo not drawn) [Example 6, 5-Chloro-7-[pyridin-3-yl-(pyridin-2-ylamino)-methyl]-quinolin-8-ol] | <50
